Experimental findings from patent publication US8008291B2 (Mimetica Pty Ltd, priority 2008, dated 2011) are described below.

Each structure is given as a SMILES string. A value given as a limit tells only on which side of the number the result lay.

This experiment deals with T1, human MC5R (hMC5R) (Homo sapiens, UniProt P33032).
T1 construct: purchased Perkin Elmer RBXMC5M400UA
T1 sequence (P33032 whole entry): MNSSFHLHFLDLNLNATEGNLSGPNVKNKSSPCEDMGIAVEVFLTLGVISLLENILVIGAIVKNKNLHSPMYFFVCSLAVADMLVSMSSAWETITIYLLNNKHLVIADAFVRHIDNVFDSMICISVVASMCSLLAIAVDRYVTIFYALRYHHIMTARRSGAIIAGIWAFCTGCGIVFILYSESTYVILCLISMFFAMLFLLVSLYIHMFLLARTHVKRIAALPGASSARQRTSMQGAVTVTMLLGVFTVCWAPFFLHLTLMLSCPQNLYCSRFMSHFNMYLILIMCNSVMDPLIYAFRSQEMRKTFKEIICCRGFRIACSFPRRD
Briefly: Human MC5R radioligand binding assay (membranes, [125I] NDP-MSH displacement). Particulars: hMC5R binding; tested as trifluoroacetate or hydrochloride salts, or free bases; read-out: MC5R radioligand IC50. A digest of the protocol:
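Frozen human MC5R membranes incubated with test compound and in-house iodogen-labeled, HPLC-purified [125I]NDP-MSH for 1 hr at 37° C. Binding measured as displacement of the radioligand.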
Take `CS(=O)(=O)NCC[C@@H]1N[C@H](CNC(=O)c2ccc(Cl)c(Cl)c2)CCN(Cc2ccc(Cl)cc2Cl)C1=O` [Compound 504, 3,4-dichloro-N-(((3S,5S)-1-(2,4-dichlorobenzyl)-3-(2-(methylsulfonamido)ethyl)-2-oxo-1,4-diazepan-5-yl)methyl)benzamide]: the IC50 – broadly, the concentration at which inhibition is half-maximal – is < 10000 nM.
Regarding `CC[C@H](CN1CCC(CNC(=O)c2ccc3cc(Cl)ccc3c2)NC(C2CCN(C(C)C)CC2)C1=O)c1ccccc1` (stereo partly drawn) [Compound 525, (S)-6-chloro-N-((3-(1-isopropylpiperidin-4-yl)-2-oxo-1-(2-phenylbutyl)-1,4-diazepan-5-yl)methyl)-2-naphthamide], the IC50 is < 100 nM.
The value for `CC[C@H](CN1CC[C@@H](CNC(=O)c2ccc3cc(Cl)ccc3c2)N[C@@H](CNC(C)C)C1=O)c1ccccc1` [Compound 499, 6-chloro-N-(((3S,5S)-3-((isopropylamino)methyl)-2-oxo-1-((S)-2-phenylbutyl)-1,4-diazepan-5-yl)methyl)-2-naphthamide] was < 100 nM.
For `CC(CN1CC[C@@H](CNC(=O)c2ccc3ccccc3c2)N[C@@H](CCN)C1=O)c1ccc(Cl)cc1` (stereo partly drawn) [Compound 422, N-(((3S,5S)-3-(2-aminoethyl)-1-(2-(4-chlorophenyl)propyl)-2-oxo-1,4-diazepan-5-yl)methyl)-2-naphthamide], the IC50 is < 10000 nM.
On to `NCC[C@@H]1N[C@H](CNC(=O)CCc2ccc(Cl)cc2)CCN(CC(c2ccccc2)c2ccccc2)C1=O` [Compound 392, N-(((3S,5S)-3-(2-aminoethyl)-1-(2,2-diphenylethyl)-2-oxo-1,4-diazepan-5-yl)methyl)-3-(4-chlorophenyl)propanamide], for which the IC50 is < 10000 nM.
On to `COc1c(C(=O)NC[C@@H]2CCN(Cc3cc(Cl)cc(Cl)c3)C(=O)[C@H](CCN3CCCCC3)N2)ccc2ccccc12` [Compound 531, N-(((3S,5S)-1-(3,5-dichlorobenzyl)-2-oxo-3-(2-(piperidin-1-yl)ethyl)-1,4-diazepan-5-yl)methyl)-1-methoxy-2-naphthamide], for which the IC50 is < 100 nM.
In the case of `O=C(/C=C/c1ccc(Cl)cc1)NC[C@@H]1CCN(CC(c2ccccc2)c2ccccc2)C(=O)[C@H](CCN2CCCC2)N1` [Compound 380, (E)-3-(4-chlorophenyl)-N-(((3S,5S)-1-(2,2-diphenylethyl)-2-oxo-3-(2-(pyrrolidin-1-yl)ethyl)-1,4-diazepan-5-yl)methyl)acrylamide] it was < 100 nM.
As to `NCC[C@@H]1N[C@H](CNC(=O)c2ccc(C(F)(F)F)cc2)CCN(CC(c2ccccc2)c2ccccc2)C1=O` [Compound 435, N-(((3S,5S)-3-(2-aminoethyl)-1-(2,2-diphenylethyl)-2-oxo-1,4-diazepan-5-yl)methyl)-4-(trifluoromethyl)benzamide], the IC50 was < 10000 nM.
In the case of `CN(C)CC[C@@H]1N[C@H](CNC(=O)c2ccc3ccccc3c2)CCN(CC(c2ccccc2)c2ccccc2)C1=O` [Compound 358, N-(((3S,5S)-3-(2-(dimethylamino)ethyl)-1-(2,2-diphenylethyl)-2-oxo-1,4-diazepan-5-yl)methyl)-2-naphthamide] it was < 1000 nM; in that of `N=C(N)NCCC[C@@H]1N[C@H](CNC(=O)c2ccc3ccccc3c2)CCN(CC(OCc2ccccc2)c2ccccc2)C1=O` (stereo partly drawn) [Compound 291, N-(((3S,5S)-1-(2-(benzyloxy)-2-phenylethyl)-3-(3-guanidinopropyl)-2-oxo-1,4-diazepan-5-yl)methyl)-2-naphthamide], < 1000 nM; in that of `O=C(NC[C@@H]1CCN(CC(c2ccccc2)c2ccccc2)C(=O)[C@H](CCCN2CCC2)N1)c1ccc2ccccc2c1` [Compound 262, N-(((3S,5S)-3-(3-(azetidin-1-yl)propyl)-1-(2,2-diphenylethyl)-2-oxo-1,4-diazepan-5-yl)methyl)-2-naphthamide], < 100 nM.
Regarding `CC[C@H](CN1CC[C@@H](CN(Cc2ccc(Cl)c(Cl)c2)C(C)=O)N[C@@H](CCN2CCCCC2)C1=O)c1ccccc1` [Compound 519], the IC50 was < 10000 nM.
On to `CC[C@H](CN1CC[C@@H](CNC(=O)c2ccc(Cl)c(Cl)c2)N[C@@H](CCN2CCCC[C@@H]2C)C1=O)c1ccccc1` [Compound 453, 3,4-dichloro-N-(((3S,5S)-3-(2-((S)-2-methylpiperidin-1-yl)ethyl)-2-oxo-1-((S)-2-phenylbutyl)-1,4-diazepan-5-yl)methyl)benzamide], for which the concentration for half-maximal inhibition (IC50) is < 10 nM.
The value for `CC[C@H](CN1CC[C@@H](CNC(=O)c2csc(-c3ccccc3)n2)N[C@@H](CCN2CCCCC2)C1=O)c1ccccc1` [Compound 496, N-(((3S,5S)-2-oxo-1-((S)-2-phenylbutyl)-3-(2-(piperidin-1-yl)ethyl)-1,4-diazepan-5-yl)methyl)-2-phenylthiazole-4-carboxamide] was < 100 nM; that for `CC[C@H](CN1CC[C@@H](CNC(=O)c2ccc(Cl)c(Cl)c2)N[C@@H](CCN(C)C(C)(C)C)C1=O)c1ccccc1` [Compound 454, N-(((3S,5S)-3-(2-(tert-butyl(methyl)amino)ethyl)-2-oxo-1-((S)-2-phenylbutyl)-1,4-diazepan-5-yl)methyl)-3,4-dichlorobenzamide] was < 100 nM.
The value for `CCC(CC)CN1CC[C@@H](CNC(=O)/C=C/c2ccc(Cl)cc2)N[C@@H](CCN)C1=O` [Compound 330, (E)-N-(((3S,5S)-3-(2-aminoethyl)-1-(2-ethylbutyl)-2-oxo-1,4-diazepan-5-yl)methyl)-3-(4-chlorophenyl)acrylamide] was < 1000 nM; that for `CC[C@H](CN1CC[C@@H](CNC(=O)c2ccc3cc(Cl)ccc3c2)N[C@@H](CCCN2CCCCC2)C1=O)c1ccccc1` [Compound 417, 6-chloro-N-(((3S,5S)-2-oxo-1-((S)-2-phenylbutyl)-3-(3-(piperidin-1-yl)propyl)-1,4-diazepan-5-yl)methyl)-2-naphthamide] was < 100 nM.
In the case of `CCC[C@H](CN1CC[C@@H](CNC(=O)c2ccc3ccccc3c2)N[C@@H](CCN2CCCCC2)C1=O)c1ccccc1` [Compound 433, N-(((3S,5S)-2-oxo-1-((S)-2-phenylpentyl)-3-(2-(piperidin-1-yl)ethyl)-1,4-diazepan-5-yl)methyl)-2-naphthamide] it was < 100 nM.
As for `O=C(NC[C@@H]1CCN(Cc2ccc(Cl)cc2Cl)C(=O)[C@H](CCN2CCCCC2)N1)c1ccc(Cl)c(Cl)c1` [Compound 503, 3,4-dichloro-N-(((3S,5S)-1-(2,4-dichlorobenzyl)-2-oxo-3-(2-(piperidin-1-yl)ethyl)-1,4-diazepan-5-yl)methyl)benzamide], the half-maximal inhibitory concentration (IC50) was < 1000 nM.
`C[C@H](CN1CC[C@@H](CNC(=O)c2ccc3ccccc3c2)N[C@@H](CCCN)C1=O)c1ccccc1` [Compound 356, N-(((3S,5S)-3-(3-aminopropyl)-2-oxo-1-((S)-2-phenylpropyl)-1,4-diazepan-5-yl)methyl)-2-naphthamide]: the IC50 was < 1000 nM.
`N=C(N)NCCC[C@@H]1N[C@H](CNC(=O)c2ccc3ccccc3c2)CCN(Cc2cc(F)cc(F)c2)C1=O` [Compound 311, N-(((3S,5S)-1-(3,5-difluorobenzyl)-3-(3-guanidinopropyl)-2-oxo-1,4-diazepan-5-yl)methyl)-2-naphthamide]: the IC50 was < 1000 nM.
